c1ccc(-c2cc3ccccc3[nH]2)cc1
Conditions | solubility (mole fraction)
in 1,2-dichloroethane, 296.95 K | 0.0186
in 1,2-dichloroethane, 302.45 K | 0.0236
in 1,2-dichloroethane, 308.55 K | 0.0285
in 1,2-dichloroethane, 313.15 K | 0.0325
in 1,2-dichloroethane, 318.25 K | 0.0373
in 1,2-dichloroethane, 323.25 K | 0.0422
in 1,2-dichloroethane, 329.05 K | 0.0498
in 1,2-dichloroethane, 334.05 K | 0.0575
in 1,2-dichloroethane, 338.55 K | 0.0666
in 1,4-dioxane, 289.05 K | 0.0403
in 1,4-dioxane, 293.15 K | 0.0507
in 1,4-dioxane, 299.15 K | 0.0625
in 1,4-dioxane, 303.95 K | 0.0735
in 1,4-dioxane, 308.95 K | 0.0903
in 1,4-dioxane, 313.65 K | 0.114
in 1,4-dioxane, 318.65 K | 0.145
in 1,4-dioxane, 324.05 K | 0.172
in 1,4-dioxane, 329.35 K | 0.201
in 1,4-dioxane, 334.15 K | 0.239
in MTBE, 289.05 K | 0.0337
in MTBE, 293.15 K | 0.0351
in MTBE, 299.15 K | 0.0383
in MTBE, 303.95 K | 0.0406
in MTBE, 308.95 K | 0.0428
in MTBE, 313.65 K | 0.0452
in MTBE, 318.65 K | 0.049
in MTBE, 324.05 K | 0.0522
in MTBE, 329.35 K | 0.0558
in MTBE, 334.15 K | 0.0596
in THF, 289.05 K | 0.187
in THF, 293.15 K | 0.194
in THF, 299.15 K | 0.203
in THF, 303.95 K | 0.211
in THF, 308.95 K | 0.218
in THF, 313.65 K | 0.225
in THF, 318.65 K | 0.232
in THF, 324.05 K | 0.24
in THF, 329.35 K | 0.248
in THF, 334.15 K | 0.256
in acetone, 289.05 K | 0.0951
in acetone, 293.15 K | 0.106
in acetone, 299.15 K | 0.111
in acetone, 303.95 K | 0.122
in acetone, 308.95 K | 0.132
in acetone, 313.65 K | 0.142
in acetone, 318.65 K | 0.15
in acetone, 324.05 K | 0.16
in acetone, 329.35 K | 0.172
in acetonitrile, 289.05 K | 0.0144
in acetonitrile, 293.15 K | 0.0164
in acetonitrile, 299.15 K | 0.02
in acetonitrile, 303.95 K | 0.0237
in acetonitrile, 308.95 K | 0.0283
in acetonitrile, 313.65 K | 0.0328
in acetonitrile, 318.65 K | 0.038
in acetonitrile, 324.05 K | 0.0446
in acetonitrile, 329.35 K | 0.0533
in acetonitrile, 334.15 K | 0.0604
in ethanol, 296.95 K | 0.0109
in ethanol, 302.45 K | 0.012
in ethanol, 308.55 K | 0.014
in ethanol, 313.15 K | 0.0154
in ethanol, 318.25 K | 0.0173
in ethanol, 323.25 K | 0.0187
in ethanol, 329.05 K | 0.0217
in ethanol, 334.05 K | 0.0249
in ethanol, 338.55 K | 0.0274
in ethyl acetate, 289.05 K | 0.0634
in ethyl acetate, 293.15 K | 0.0694
in ethyl acetate, 299.15 K | 0.0761
in ethyl acetate, 303.95 K | 0.0814
in ethyl acetate, 308.95 K | 0.0879
in ethyl acetate, 313.65 K | 0.0951
in ethyl acetate, 318.65 K | 0.101
in ethyl acetate, 324.05 K | 0.11
in ethyl acetate, 329.35 K | 0.119
in ethyl acetate, 334.15 K | 0.128
in isopropanol, 296.95 K | 0.00786
in isopropanol, 302.45 K | 0.00963
in isopropanol, 308.55 K | 0.0115
in isopropanol, 313.15 K | 0.0125
in isopropanol, 318.25 K | 0.0148
in isopropanol, 323.25 K | 0.0168
in isopropanol, 329.05 K | 0.0185
in isopropanol, 334.05 K | 0.0218
in isopropanol, 338.55 K | 0.0233
in methanol, 296.95 K | 0.00571
in methanol, 302.45 K | 0.00709
in methanol, 308.55 K | 0.00835
in methanol, 313.15 K | 0.00941
in methanol, 318.25 K | 0.0107
in methanol, 323.25 K | 0.0119
in methanol, 329.05 K | 0.0136
in methanol, 334.05 K | 0.016
in methanol, 338.55 K | 0.017
in n-butanol, 296.95 K | 0.0123
in n-butanol, 302.45 K | 0.0141
in n-butanol, 308.55 K | 0.0163
in n-butanol, 313.15 K | 0.0181
in n-butanol, 318.25 K | 0.0212
in n-butanol, 323.25 K | 0.0241
in n-butanol, 329.05 K | 0.0276
in n-butanol, 334.05 K | 0.0311
in n-butanol, 338.55 K | 0.0357
in n-propanol, 296.95 K | 0.0104
in n-propanol, 302.45 K | 0.012
in n-propanol, 308.55 K | 0.0134
in n-propanol, 313.15 K | 0.0156
in n-propanol, 318.25 K | 0.0177
in n-propanol, 323.25 K | 0.0206
in n-propanol, 329.05 K | 0.0233
in n-propanol, 334.05 K | 0.0269
in n-propanol, 338.55 K | 0.03
in sec-butanol, 296.95 K | 0.00879
in sec-butanol, 302.45 K | 0.0111
in sec-butanol, 308.55 K | 0.014
in sec-butanol, 313.15 K | 0.0157
in sec-butanol, 318.25 K | 0.0182
in sec-butanol, 323.25 K | 0.022
in sec-butanol, 329.05 K | 0.0271
in sec-butanol, 334.05 K | 0.0307
in sec-butanol, 338.55 K | 0.0353
in toluene, 289.05 K | 0.00911
in toluene, 293.15 K | 0.0101
in toluene, 299.15 K | 0.0122
in toluene, 303.95 K | 0.0141
in toluene, 308.95 K | 0.0167
in toluene, 313.65 K | 0.0191
in toluene, 318.65 K | 0.0222
in toluene, 324.05 K | 0.0255
in toluene, 329.35 K | 0.0298
in toluene, 334.15 K | 0.0342

Source: BigSolDB 2.1
